Data published in patent US8263823B2, “Immunocompetent xenograft model” (Adimmu Institute Inc., priority 2008, dated 2012).

Columns and labels:
[1] = tested on: CD8+ 2C transgenic T-cells; conditions: chemotherapy (dacarbazine) alone, compared to the control mice
Experimental: Lymph node (LN) cells and splenocytes (SP) were isolated from 2C TCR Tg mice. […] Cells were isolated from the inguinal LNs (DLNs), SP, or tumors at the time indicated. CFSE dilution was evaluated as described in Yu, at Id.
In order to identify the effects of the chemotherapy on CD8+ T-cell priming, 5×10^5 B16-SIY melanoma cells were injected s.c. in the B6 mice. On day 17, 2×10^6 CFSE labeled naïve CD8+ 2C transgenic T-cells were adoptively transferred into the B16-SIY tumor bearing mice. The mice were treated locally with 20 Gy of radiation on day 0 following the transfer. 200 mg/kg dacarbazine i.p. was given two days after the adoptive transfer, and DLN and SP were harvested on day 21 to determine the CFSE dilution in the DLN and SP.

4T1 tumor cells [2] = assay: 4T1 breast tumor model, primary tumor growth, radiation therapy with or without paclitaxel; format: in vivo, mouse; conditions: paclitaxel 20 mg/kg i.p. on days 7 and 14 after radiation therapy (15 Gy x3), Balb/c mice
Experimental: The mice were irradiated using an x-ray generator (PCM 1000; Pantak) at the doses indicated by each experiment. Each mouse was protected with a lead cover with only tumor exposed, allowing local irradiation. For systemic chemotherapy, tumor-bearing mice were injected i.p. with 20 mg/kg paclitaxel (Ameristat Pharmaceuticals) for 4T1 bearing mice and 200 mg/kg dacarbazine (Bedford Laboratories) for B16 bearing mice.
(§1) Cultured cancer cells were trypsinized, washed with media, and injected s.c. on the back. Tumor size was determined at 3-4 day intervals. Tumor volumes were measured along three orthogonal axes (a, b, and c) and calculated as tumor volume=abc/2.
A 4T1 breast tumor model was used to show the results of the test on a different type of tumor. 1×10^5 4T1 tumor cells were injected and allowed to establish for 14 days. Balb/c control mice receive the breast cancer cells and no radiation, and other mice receive radiation therapy only, chemotherapy only, or a combination of radiation therapy followed by chemotherapy. The mice receiving radiation received a dose of 15 Gy on each of days 14, 15, and 16. On days 7 and 14 following radiation therapy, the mice receiving a combination of radiation therapy and chemotherapy received 20 mg/kg paclitaxel i.p.

4T1 tumor cells [3] = assay: 4T1 lung metastases colonogenic assay, radiation therapy with or without paclitaxel; format: in vivo, mouse
Description: For surgical excision of primary 4T1 and B16-CCR7 tumors, mice were anesthetized, and tumors were resected with sterilized instruments. A colonogenic assay was used to evaluate metastases in 4T1 and B16-CCR7 tumors as described in B. A. Pulaski, S. Ostrand-Rosenberg, Curr Protoc Immunol Chapter 20, Unit 20 2 (May, 2001), incorporated herein by reference in its entirety. Lungs for 4T1 tumor or DLN for B16-CCR7 were collected, chopped and dissociated in DMEM supplemented with 10% FCS containing 1.5 mg/ml collagenase type D (Sigma-Aldrich) for 20 min in 37° C. shaking incubator. Single cell suspensions were plated at various dilutions in media supplemented with 10% FCS and selection drug. 4T1 is resistant to 6-thioguanine ([…]) and B16-CCR7 is resistant to G418 (0.7 mg/ml). Individual colonies representing micrometastases were counted after 5-10 days.
1×10^5 4T1 tumor cells were injected s.c. to the Balb/c mice, and the mice received 15 Gy of radiation on each days 12, 13, and 14.

TUBO cells = assay: TUBO tumor size after aHER2, DOXORUBICIN or their combination; format: in vivo, mouse; conditions: DOXORUBICIN alone (5 or 15 mg/kg), intratumoral
Experimental: as §1
Combination therapy of aHER2 and a chemotherapeutic could show the same reduction in efficacy due to the immunosuppressive action of the chemotherapeutic. To show this, 1×10^6 TUBO cells were injected into Balb/c mice. After the tumor was well-established, the mice were separated into groups subject to the following groups of treatments: (i) 80 μg mIgG only, (ii) 80 μg aHER2 only, (iii) 5 mg/kg DOXORUBICIN only, (iv) 15 mg/kg DOXORUBICIN only, (v) a combination of 80 μg aHER2 and 5 mg/kg DOXORUBICIN, and (vi) a combination of 80 μg aHER2 and 15 mg/kg DOXORUBICIN. The antibodies and chemotherapeutic were administered intratumorally, the time injections and tumor size measurements were taken at 19 and 26 days after tumor injection.

CN(C)/N=N/c1[nH]cnc1C(N)=O [dacarbazine]
proliferation of cytotoxic lymphocytes (CTL) [1]: did not elicit proliferation of cytotoxic lymphocytes (CTL)

CC(=O)O[C@H]1C(=O)[C@@]2(C)[C@H]([C@H](OC(=O)c3ccccc3)[C@]3(O)C[C@H](OC(=O)[C@H](O)[C@@H](NC(=O)c4ccccc4)c4ccccc4)C(C)=C1C3(C)C)[C@]1(OC(C)=O)CO[C@@H]1C[C@@H]2O [paclitaxel]
tumor regression (4T1 tumor cells [2]): significantly hindered melanoma tumor regression and promoted tumor outgrowth
degree of metastases in the lungs (4T1 tumor cells [3]; chemotherapy (paclitaxel) alone, compared to the control mice): little effect on the degree of metastases in the lungs
increase in tumor colonies in the lungs (4T1 tumor cells [3]; paclitaxel 20 mg/kg i.p. on days 7 and 14 after radiation therapy (15 Gy x3), versus radiation therapy alone): 100 fold

COc1cccc2c1C(=O)c1c(O)c3c(c(O)c1C2=O)C[C@@](O)(C(=O)CO)C[C@@H]3O[C@H]1C[C@H](N)[C@H](O)[C@H](C)O1 [DOXORUBICIN]
tumor burden (TUBO cells): reduces tumor burden
